In PMC6704710, “Preclinical evaluation of 3D185, a novel potent inhibitor of FGFR1/2/3 and CSF-1R, in FGFR-dependent and macrophage-dominant cancer models” (Journal of Experimental & Clinical Cancer Research : CR, 2019):

Columns and labels:
Test in all cases: Eurofins kinase panel
Assay type in all cases: biochemical
Details in all cases: read-out: Inhibition rate (%)
[1] = target: T1, Ron(h) (Homo sapiens, UniProt Q04912)
T1 construct: purchased Eurofins (KinaseProfiler)

[2] = target: T2, PAR-1Bα(h) (Homo sapiens, UniProt Q7KZI7)
T2 construct: purchased Eurofins (KinaseProfiler)

[3] = target: T3, MEK2(h) (Homo sapiens, UniProt P36507)
T3 construct: purchased Eurofins (KinaseProfiler)

[4] = target: T4, ULK2(h) (Homo sapiens, UniProt Q8IYT8)
T4 construct: purchased Eurofins (KinaseProfiler)
T4 sequence (Q8IYT8 1-1036): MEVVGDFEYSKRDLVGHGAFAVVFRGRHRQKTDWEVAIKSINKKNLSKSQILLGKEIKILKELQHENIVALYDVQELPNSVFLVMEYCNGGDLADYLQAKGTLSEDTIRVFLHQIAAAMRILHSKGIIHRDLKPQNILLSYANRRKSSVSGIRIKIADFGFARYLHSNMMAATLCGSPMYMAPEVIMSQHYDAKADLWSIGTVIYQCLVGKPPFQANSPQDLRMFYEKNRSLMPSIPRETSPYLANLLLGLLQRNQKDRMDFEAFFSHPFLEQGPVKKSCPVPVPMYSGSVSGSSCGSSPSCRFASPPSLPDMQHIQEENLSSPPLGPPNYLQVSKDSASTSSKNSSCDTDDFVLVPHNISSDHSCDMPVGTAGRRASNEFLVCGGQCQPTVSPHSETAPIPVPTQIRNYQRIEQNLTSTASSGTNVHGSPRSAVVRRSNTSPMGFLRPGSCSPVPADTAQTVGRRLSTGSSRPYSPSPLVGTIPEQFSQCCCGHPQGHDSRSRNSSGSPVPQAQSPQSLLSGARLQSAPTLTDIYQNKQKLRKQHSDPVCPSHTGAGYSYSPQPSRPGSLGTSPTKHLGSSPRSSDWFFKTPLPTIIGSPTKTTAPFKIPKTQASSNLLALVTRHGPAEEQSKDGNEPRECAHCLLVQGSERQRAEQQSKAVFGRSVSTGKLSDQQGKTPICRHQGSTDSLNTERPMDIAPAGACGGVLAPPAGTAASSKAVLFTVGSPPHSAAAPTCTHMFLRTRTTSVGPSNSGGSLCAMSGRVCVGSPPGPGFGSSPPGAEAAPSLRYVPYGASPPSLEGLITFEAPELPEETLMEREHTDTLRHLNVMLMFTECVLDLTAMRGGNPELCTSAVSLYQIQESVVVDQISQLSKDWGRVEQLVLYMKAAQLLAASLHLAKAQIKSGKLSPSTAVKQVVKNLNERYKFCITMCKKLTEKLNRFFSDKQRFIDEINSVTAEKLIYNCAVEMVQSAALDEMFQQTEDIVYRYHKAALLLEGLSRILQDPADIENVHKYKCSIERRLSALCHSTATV

[5] = target: T5, PKG1β(h) (Homo sapiens, UniProt Q13976)
T5 construct: purchased Eurofins (KinaseProfiler)
T5 sequence (Q13976 1-686 isoform Q13976-2): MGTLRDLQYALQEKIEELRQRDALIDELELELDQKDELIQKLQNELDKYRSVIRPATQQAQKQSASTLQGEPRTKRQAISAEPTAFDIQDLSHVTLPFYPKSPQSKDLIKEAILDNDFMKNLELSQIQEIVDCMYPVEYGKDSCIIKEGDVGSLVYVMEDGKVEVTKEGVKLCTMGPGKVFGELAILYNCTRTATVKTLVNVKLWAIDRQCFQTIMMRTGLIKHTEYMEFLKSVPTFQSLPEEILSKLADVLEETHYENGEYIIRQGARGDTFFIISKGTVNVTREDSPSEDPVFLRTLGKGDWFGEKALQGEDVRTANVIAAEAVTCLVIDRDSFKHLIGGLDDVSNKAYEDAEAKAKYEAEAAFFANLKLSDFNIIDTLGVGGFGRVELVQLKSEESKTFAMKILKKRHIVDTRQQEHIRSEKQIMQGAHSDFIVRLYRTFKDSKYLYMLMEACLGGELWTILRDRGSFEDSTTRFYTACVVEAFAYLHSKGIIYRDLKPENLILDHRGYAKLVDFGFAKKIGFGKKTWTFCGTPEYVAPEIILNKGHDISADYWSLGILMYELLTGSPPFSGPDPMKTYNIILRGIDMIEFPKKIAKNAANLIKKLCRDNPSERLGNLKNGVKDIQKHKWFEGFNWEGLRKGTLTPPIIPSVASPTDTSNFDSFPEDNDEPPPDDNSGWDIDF

[6] = target: T6, LOK(h) (Homo sapiens, UniProt O94804)
T6 construct: purchased Eurofins (KinaseProfiler)

[7] = target: T7, HIPK3(h) (Homo sapiens, UniProt Q9H422)
T7 construct: purchased Eurofins (KinaseProfiler)

[8] = target: T8, MOK(h) (Homo sapiens, UniProt Q9UQ07)
T8 construct: purchased Eurofins (KinaseProfiler)
T8 sequence (Q9UQ07 1-419): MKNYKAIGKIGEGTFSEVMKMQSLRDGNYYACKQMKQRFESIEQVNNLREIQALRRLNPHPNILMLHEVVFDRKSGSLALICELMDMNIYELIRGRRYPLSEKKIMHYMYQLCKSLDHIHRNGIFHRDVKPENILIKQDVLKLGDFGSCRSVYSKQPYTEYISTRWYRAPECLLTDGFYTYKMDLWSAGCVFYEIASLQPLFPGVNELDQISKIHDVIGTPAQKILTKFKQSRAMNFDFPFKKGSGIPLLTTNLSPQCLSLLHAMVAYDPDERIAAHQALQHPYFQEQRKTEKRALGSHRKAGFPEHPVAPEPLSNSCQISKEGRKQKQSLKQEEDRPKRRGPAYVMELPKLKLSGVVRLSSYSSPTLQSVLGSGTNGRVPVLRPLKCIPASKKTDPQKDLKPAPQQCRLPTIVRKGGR

T1 sequence (Q04912 25-1400): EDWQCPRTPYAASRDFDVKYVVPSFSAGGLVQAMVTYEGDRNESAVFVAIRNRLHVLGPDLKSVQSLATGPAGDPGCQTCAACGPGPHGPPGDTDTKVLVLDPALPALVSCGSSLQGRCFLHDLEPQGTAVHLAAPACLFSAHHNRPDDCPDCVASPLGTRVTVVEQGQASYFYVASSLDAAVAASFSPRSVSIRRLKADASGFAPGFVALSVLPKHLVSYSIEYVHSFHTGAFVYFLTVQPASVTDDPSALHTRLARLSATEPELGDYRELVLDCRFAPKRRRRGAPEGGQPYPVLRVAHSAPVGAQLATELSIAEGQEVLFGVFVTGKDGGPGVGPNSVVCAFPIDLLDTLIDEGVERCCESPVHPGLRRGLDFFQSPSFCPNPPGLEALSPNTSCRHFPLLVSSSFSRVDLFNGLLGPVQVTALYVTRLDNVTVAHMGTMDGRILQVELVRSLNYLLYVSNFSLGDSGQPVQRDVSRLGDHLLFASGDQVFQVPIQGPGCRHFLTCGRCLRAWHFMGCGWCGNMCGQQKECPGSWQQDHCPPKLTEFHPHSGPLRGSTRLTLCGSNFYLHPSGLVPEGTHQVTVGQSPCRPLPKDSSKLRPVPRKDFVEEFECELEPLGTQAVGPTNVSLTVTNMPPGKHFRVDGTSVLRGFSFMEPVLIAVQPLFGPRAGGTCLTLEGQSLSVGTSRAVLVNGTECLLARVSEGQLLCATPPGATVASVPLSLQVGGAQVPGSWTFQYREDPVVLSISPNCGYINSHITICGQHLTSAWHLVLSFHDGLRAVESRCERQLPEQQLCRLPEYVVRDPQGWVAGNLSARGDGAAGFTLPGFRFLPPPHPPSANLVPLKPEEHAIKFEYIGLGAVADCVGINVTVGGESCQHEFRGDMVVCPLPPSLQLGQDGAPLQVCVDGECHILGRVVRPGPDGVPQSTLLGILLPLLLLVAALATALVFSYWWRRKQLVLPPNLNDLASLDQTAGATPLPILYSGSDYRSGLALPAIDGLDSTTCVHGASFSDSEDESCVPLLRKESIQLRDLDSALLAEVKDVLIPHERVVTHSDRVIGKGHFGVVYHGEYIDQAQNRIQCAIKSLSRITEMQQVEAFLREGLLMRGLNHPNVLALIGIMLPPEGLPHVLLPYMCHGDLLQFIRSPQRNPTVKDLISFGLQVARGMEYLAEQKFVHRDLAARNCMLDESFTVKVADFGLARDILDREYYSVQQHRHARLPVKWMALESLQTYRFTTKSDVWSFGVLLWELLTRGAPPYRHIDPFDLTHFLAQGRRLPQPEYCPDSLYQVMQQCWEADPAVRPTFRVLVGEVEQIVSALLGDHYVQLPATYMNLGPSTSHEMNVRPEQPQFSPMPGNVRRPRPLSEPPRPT
T2 sequence (Q7KZI7 1-725 isoform Q7KZI7-4): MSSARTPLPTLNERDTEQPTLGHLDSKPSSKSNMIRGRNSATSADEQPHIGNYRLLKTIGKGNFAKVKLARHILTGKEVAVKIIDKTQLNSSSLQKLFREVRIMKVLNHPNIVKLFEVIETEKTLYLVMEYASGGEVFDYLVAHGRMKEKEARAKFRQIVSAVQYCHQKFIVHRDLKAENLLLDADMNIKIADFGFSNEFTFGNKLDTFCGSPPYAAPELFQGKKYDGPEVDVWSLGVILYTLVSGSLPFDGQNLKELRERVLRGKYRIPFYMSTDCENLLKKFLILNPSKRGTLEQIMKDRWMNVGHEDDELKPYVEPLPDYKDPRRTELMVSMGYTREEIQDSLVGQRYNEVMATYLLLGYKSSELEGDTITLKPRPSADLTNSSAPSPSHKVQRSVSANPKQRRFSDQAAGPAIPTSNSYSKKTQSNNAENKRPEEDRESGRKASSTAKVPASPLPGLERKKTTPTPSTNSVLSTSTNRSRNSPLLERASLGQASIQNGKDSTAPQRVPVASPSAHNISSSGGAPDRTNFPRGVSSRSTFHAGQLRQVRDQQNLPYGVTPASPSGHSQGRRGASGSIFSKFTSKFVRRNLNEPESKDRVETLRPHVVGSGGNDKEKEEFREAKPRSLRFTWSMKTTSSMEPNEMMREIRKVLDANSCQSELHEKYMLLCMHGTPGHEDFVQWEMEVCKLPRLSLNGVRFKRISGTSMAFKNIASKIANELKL
T6 sequence (O94804 whole entry): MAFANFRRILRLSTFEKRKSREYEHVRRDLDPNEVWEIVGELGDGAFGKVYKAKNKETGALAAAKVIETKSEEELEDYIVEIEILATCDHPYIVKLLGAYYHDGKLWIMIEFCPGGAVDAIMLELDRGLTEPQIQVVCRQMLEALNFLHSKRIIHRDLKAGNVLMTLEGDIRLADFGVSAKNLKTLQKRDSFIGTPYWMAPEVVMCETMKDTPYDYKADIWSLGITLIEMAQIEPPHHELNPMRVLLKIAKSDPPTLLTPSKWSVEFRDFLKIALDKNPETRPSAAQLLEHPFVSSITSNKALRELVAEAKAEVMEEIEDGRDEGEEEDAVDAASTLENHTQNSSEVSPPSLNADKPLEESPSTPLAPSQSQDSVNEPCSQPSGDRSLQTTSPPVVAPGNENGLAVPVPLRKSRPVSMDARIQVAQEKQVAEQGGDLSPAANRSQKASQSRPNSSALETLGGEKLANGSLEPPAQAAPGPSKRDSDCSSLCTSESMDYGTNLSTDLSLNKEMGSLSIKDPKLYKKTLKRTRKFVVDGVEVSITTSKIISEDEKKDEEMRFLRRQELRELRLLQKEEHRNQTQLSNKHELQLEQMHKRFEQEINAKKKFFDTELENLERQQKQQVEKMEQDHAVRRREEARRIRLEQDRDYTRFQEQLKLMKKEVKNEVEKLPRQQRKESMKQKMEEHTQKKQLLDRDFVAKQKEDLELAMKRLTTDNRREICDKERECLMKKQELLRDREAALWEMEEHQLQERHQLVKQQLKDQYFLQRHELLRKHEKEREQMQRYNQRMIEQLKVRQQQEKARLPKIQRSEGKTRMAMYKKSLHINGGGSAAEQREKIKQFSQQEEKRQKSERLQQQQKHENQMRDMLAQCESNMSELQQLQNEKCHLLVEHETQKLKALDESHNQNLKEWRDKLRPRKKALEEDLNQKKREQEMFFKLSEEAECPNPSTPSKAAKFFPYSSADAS
T7 sequence (Q9H422 whole entry): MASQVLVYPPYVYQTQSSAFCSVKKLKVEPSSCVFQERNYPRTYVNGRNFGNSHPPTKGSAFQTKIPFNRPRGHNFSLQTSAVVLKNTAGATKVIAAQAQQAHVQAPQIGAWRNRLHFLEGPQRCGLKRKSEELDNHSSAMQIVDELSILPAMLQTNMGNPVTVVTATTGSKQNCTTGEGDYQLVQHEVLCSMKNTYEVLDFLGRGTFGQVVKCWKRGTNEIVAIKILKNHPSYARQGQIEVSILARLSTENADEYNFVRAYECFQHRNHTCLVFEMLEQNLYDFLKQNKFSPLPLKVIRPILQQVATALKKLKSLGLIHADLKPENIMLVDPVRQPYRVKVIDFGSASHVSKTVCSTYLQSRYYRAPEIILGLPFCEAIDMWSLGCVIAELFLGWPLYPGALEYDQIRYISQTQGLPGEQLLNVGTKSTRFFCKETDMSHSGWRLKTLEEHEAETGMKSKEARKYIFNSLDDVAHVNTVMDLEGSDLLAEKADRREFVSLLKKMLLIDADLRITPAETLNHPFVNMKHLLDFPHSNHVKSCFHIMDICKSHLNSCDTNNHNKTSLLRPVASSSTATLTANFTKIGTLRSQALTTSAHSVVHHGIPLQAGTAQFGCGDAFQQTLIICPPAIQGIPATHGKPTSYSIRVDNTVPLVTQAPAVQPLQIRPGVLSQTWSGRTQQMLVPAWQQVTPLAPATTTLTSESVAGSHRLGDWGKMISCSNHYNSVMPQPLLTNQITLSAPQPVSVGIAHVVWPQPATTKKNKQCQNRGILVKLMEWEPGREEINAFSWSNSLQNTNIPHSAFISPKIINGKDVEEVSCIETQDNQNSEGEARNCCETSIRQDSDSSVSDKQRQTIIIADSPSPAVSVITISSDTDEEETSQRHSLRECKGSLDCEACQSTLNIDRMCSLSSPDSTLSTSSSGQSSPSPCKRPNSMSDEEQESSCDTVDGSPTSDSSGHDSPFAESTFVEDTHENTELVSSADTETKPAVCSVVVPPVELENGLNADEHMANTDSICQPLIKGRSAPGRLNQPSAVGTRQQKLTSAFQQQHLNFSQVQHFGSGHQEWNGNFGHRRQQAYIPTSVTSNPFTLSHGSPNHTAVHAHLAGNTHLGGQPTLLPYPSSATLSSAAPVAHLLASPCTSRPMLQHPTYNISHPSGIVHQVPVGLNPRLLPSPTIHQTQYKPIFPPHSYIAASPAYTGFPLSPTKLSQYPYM
T3 sequence (P36507 whole entry): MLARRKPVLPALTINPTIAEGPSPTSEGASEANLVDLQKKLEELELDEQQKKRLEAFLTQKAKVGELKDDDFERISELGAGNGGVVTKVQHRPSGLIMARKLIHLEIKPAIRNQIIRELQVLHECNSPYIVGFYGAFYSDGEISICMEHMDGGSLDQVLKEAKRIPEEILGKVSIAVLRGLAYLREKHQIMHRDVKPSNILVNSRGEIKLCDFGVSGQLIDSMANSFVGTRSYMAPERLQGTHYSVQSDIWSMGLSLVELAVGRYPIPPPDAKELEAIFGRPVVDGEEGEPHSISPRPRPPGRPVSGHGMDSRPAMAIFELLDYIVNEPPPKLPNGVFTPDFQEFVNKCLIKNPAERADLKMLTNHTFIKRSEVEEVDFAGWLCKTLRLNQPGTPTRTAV

SMILES: COc1cc(OC)c(Cl)c(-c2ccc3c(NC(=O)c4ccc(N5CCNC(C)(C)C5)cc4)n[nH]c3n2)c1Cl [3D185]
- inhibition at 0.01 µM ([1]; 10 nM): -16%
- inhibition at 0.1 µM ([1]; 100 nM): -10%
- inhibition at 1 µM ([1]; 1000 nM): 28%
- inhibition at 0.01 µM ([2]; 10 nM): -4%
- inhibition at 0.1 µM ([2]; 100 nM): -3%
- inhibition at 1 µM ([2]; 1000 nM): 2%
- inhibition at 0.01 µM ([3]; 10 nM): -18%
- inhibition at 0.1 µM ([3]; 100 nM): -19%
- inhibition at 1 µM ([3]; 1000 nM): 8%
- inhibition at 0.01 µM ([4]; 10 nM): 4%
- inhibition at 0.1 µM ([4]; 100 nM): 14%
- inhibition at 1 µM ([4]; 1000 nM): 22%
- inhibition at 0.01 µM ([5]; 10 nM): 12%
- inhibition at 0.1 µM ([5]; 100 nM): 1%
- inhibition at 1 µM ([5]; 1000 nM): 4%
- inhibition at 0.01 µM ([6]; 10 nM): 1%
- inhibition at 0.1 µM ([6]; 100 nM): 27%
- inhibition at 1 µM ([6]; 1000 nM): 77%
- inhibition at 0.01 µM ([7]; 10 nM): -2%
- inhibition at 0.1 µM ([7]; 100 nM): -12%
- inhibition at 1 µM ([7]; 1000 nM): -8%
- inhibition at 0.01 µM ([8]; 10 nM): -7%
- inhibition at 0.1 µM ([8]; 100 nM): 6%
- inhibition at 1 µM ([8]; 1000 nM): 1%
